Assays:
Test in all cases: fitness (endpoint OD595 vs no drug) (fraction); higher = more growth
S. aureus DSM 20231 = tested on: S. aureus DSM 20231
In short: (§1)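 Bacterial fitness was scored as optical density at the stationary-phase transition relative to the robust mean of no-drug control wells. Scores are capped at 1. The growth data were OD595 readings every 30 min for 14 h at 37 °C, background-subtracted against the first reading, from 384-well plates inoculated at OD595 0.01 in TSB, LB Lennox or CY.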

S. aureus Newman = tested on: S. aureus Newman
In short: as §1

S. pneumoniae D39V = tested on: S. pneumoniae D39V
In short: as §1
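Further: OD595 on entry to stationary phase over no-drug wells; at most 1.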

CO[C@@]12[C@H](COC(N)=O)C3=C(C(=O)C(C)=C(N)C3=O)N1C[C@@H]1N[C@@H]12 [Mitomycin C] + COc1c(N2C[C@@H]3CCCN[C@@H]3C2)c(F)cc2c(=O)c(C(=O)O)cn(C3CC3)c12 [Moxifloxacin]
Conditions	fitness
S. aureus DSM 20231, first compound 0.0156 µg/mL, partner 0.0075 µg/mL	0.677
S. aureus DSM 20231, first compound 0.0156 µg/mL, partner 0.015 µg/mL	0.675
S. aureus DSM 20231, first compound 0.0156 µg/mL, partner 0.03 µg/mL	0.543
S. aureus DSM 20231, first compound 0.0312 µg/mL, partner 0.0075 µg/mL	0.703
S. aureus DSM 20231, first compound 0.0312 µg/mL, partner 0.015 µg/mL	0.624
S. aureus DSM 20231, first compound 0.0312 µg/mL, partner 0.03 µg/mL	0.506
S. aureus DSM 20231, first compound 0.0625 µg/mL, partner 0.0075 µg/mL	0.557
S. aureus DSM 20231, first compound 0.0625 µg/mL, partner 0.015 µg/mL	0.504
S. aureus DSM 20231, first compound 0.0625 µg/mL, partner 0.03 µg/mL	0.371
S. aureus Newman, first compound 0.0156 µg/mL, partner 0.0075 µg/mL	0.63
S. aureus Newman, first compound 0.0312 µg/mL, partner 0.0075 µg/mL	0.59
S. aureus Newman, first compound 0.0312 µg/mL, partner 0.03 µg/mL	0.0632
S. aureus Newman, first compound 0.0625 µg/mL, partner 0.0075 µg/mL	0.32
S. aureus Newman, first compound 0.0625 µg/mL, partner 0.03 µg/mL	0.0334
S. pneumoniae D39V, first compound 0.001075 µg/mL, partner 0.0037 µg/mL	0.878
S. pneumoniae D39V, first compound 0.001075 µg/mL, partner 0.0075 µg/mL	0.902
S. pneumoniae D39V, first compound 0.001075 µg/mL, partner 0.015 µg/mL	0.869
S. pneumoniae D39V, first compound 0.002 µg/mL, partner 0.005 µg/mL	0.895
S. pneumoniae D39V, first compound 0.002 µg/mL, partner 0.01 µg/mL	0.902
S. pneumoniae D39V, first compound 0.002 µg/mL, partner 0.02 µg/mL	0.769
S. pneumoniae D39V, first compound 0.00215 µg/mL, partner 0.0037 µg/mL	0.846
S. pneumoniae D39V, first compound 0.00215 µg/mL, partner 0.0075 µg/mL	0.805
S. pneumoniae D39V, first compound 0.00215 µg/mL, partner 0.015 µg/mL	0.813
S. pneumoniae D39V, first compound 0.004 µg/mL, partner 0.005 µg/mL	0.838
S. pneumoniae D39V, first compound 0.004 µg/mL, partner 0.01 µg/mL	0.807
S. pneumoniae D39V, first compound 0.004 µg/mL, partner 0.02 µg/mL	0.727
S. pneumoniae D39V, first compound 0.0043 µg/mL, partner 0.0037 µg/mL	0.665
S. pneumoniae D39V, first compound 0.0043 µg/mL, partner 0.0075 µg/mL	0.691
S. pneumoniae D39V, first compound 0.0043 µg/mL, partner 0.015 µg/mL	0.666
S. pneumoniae D39V, first compound 0.008 µg/mL, partner 0.005 µg/mL	0.673
S. pneumoniae D39V, first compound 0.008 µg/mL, partner 0.01 µg/mL	0.72
S. pneumoniae D39V, first compound 0.008 µg/mL, partner 0.02 µg/mL	0.637

fitness, S. aureus DSM 20231, one replicate
Conditions	first compound 0.0156 µg/mL	first compound 0.0312 µg/mL	first compound 0.0625 µg/mL
partner 0.06 µg/mL	0.674	0.603	0.512
partner 0.12 µg/mL	0.413	0.302	0.198

CO[C@@]12[C@H](COC(N)=O)C3=C(C(=O)C(C)=C(N)C3=O)N1C[C@@H]1N[C@@H]12 [Mitomycin C] + COc1ccc(C[C@H](N)C(=O)N[C@H]2[C@@H](O)[C@H](n3cnc4c(N(C)C)ncnc43)O[C@@H]2CO)cc1 [Puromycin]
fitness
Conditions	first compound 0.001075 µg/mL	first compound 0.00215 µg/mL	first compound 0.0043 µg/mL	first compound 0.0156 µg/mL	first compound 0.0312 µg/mL	first compound 0.0625 µg/mL
S. aureus DSM 20231, partner 0.39 µg/mL	–	–	–	0.759	0.758	0.593
S. aureus DSM 20231, partner 0.78 µg/mL	–	–	–	0.776	0.78	0.638
S. aureus DSM 20231, partner 1.56 µg/mL	–	–	–	0.752	0.699	0.582
S. aureus Newman, partner 0.39 µg/mL	–	–	–	0.79	0.651	0.552
S. aureus Newman, partner 0.78 µg/mL	–	–	–	0.766	0.704	0.604
S. aureus Newman, partner 1.56 µg/mL	–	–	–	0.764	0.662	0.494
S. pneumoniae D39V, partner 1 µg/mL	0.986	0.968	0.867	–	–	–
S. pneumoniae D39V, partner 2 µg/mL	0.935	0.915	0.781	–	–	–
S. pneumoniae D39V, partner 4 µg/mL	0.798	0.775	0.654	–	–	–

fitness, one replicate
Conditions	first compound 0.002 µg/mL	first compound 0.004 µg/mL	first compound 0.008 µg/mL	first compound 0.0156 µg/mL	first compound 0.0312 µg/mL	first compound 0.0625 µg/mL
S. aureus DSM 20231, partner 3.12 µg/mL	–	–	–	0.807	0.594	0.363
S. aureus DSM 20231, partner 6.24 µg/mL	–	–	–	0.27	0.219	0.114
S. pneumoniae D39V, partner 1 µg/mL	0.798	0.786	0.685	–	–	–
S. pneumoniae D39V, partner 2 µg/mL	0.783	0.762	0.692	–	–	–
S. pneumoniae D39V, partner 4 µg/mL	0.628	0.612	0.541	–	–	–

CO[C@@]12[C@H](COC(N)=O)C3=C(C(=O)C(C)=C(N)C3=O)N1C[C@@H]1N[C@@H]12 [Mitomycin C] + C[n+]1ccc(-c2cc[n+](C)cc2)cc1 [Paraquat]
fitness
Conditions	first compound 0.001075 µg/mL	first compound 0.00215 µg/mL	first compound 0.0043 µg/mL	first compound 0.0156 µg/mL	first compound 0.0312 µg/mL	first compound 0.0625 µg/mL
S. aureus DSM 20231, partner 1.25 µg/mL	–	–	–	0.717	0.684	0.563
S. aureus DSM 20231, partner 2.5 µg/mL	–	–	–	0.691	0.678	0.577
S. aureus DSM 20231, partner 5 µg/mL	–	–	–	0.668	0.67	0.557
S. aureus Newman, partner 1.25 µg/mL	–	–	–	0.666	0.675	0.527
S. aureus Newman, partner 2.5 µg/mL	–	–	–	0.675	0.651	0.527
S. aureus Newman, partner 5 µg/mL	–	–	–	0.696	0.676	0.467
S. pneumoniae D39V, partner 1.5 µg/mL	0.955	0.94	0.862	–	–	–
S. pneumoniae D39V, partner 3 µg/mL	0.954	0.911	0.842	–	–	–
S. pneumoniae D39V, partner 6 µg/mL	0.961	0.919	0.783	–	–	–

fitness, S. pneumoniae D39V, one replicate
Conditions	first compound 0.002 µg/mL	first compound 0.004 µg/mL	first compound 0.008 µg/mL
partner 1.5 µg/mL	0.852	0.77	0.553
partner 3 µg/mL	0.862	0.781	0.592
partner 6 µg/mL	0.867	0.778	0.558

CO[C@@]12[C@H](COC(N)=O)C3=C(C(=O)C(C)=C(N)C3=O)N1C[C@@H]1N[C@@H]12 [Mitomycin C] + Cc1cc(NS(=O)(=O)c2ccc(N)cc2)no1 [Sulfamethoxazol]
fitness
Conditions	first compound 0.001075 µg/mL	first compound 0.00215 µg/mL	first compound 0.0043 µg/mL	first compound 0.0156 µg/mL	first compound 0.0312 µg/mL	first compound 0.0625 µg/mL
S. aureus DSM 20231, partner 1 µg/mL	–	–	–	0.703	0.664	0.534
S. aureus DSM 20231, partner 2 µg/mL	–	–	–	0.686	0.689	0.558
S. aureus DSM 20231, partner 4 µg/mL	–	–	–	0.721	0.684	0.547
S. aureus Newman, partner 1 µg/mL	–	–	–	0.779	0.66	0.546
S. aureus Newman, partner 2 µg/mL	–	–	–	0.777	0.698	0.559
S. aureus Newman, partner 4 µg/mL	–	–	–	0.73	0.622	0.516
S. pneumoniae D39V, partner 1 µg/mL	0.886	0.851	0.773	–	–	–
S. pneumoniae D39V, partner 2 µg/mL	0.894	0.873	0.779	–	–	–
S. pneumoniae D39V, partner 4 µg/mL	0.921	0.913	0.787	–	–	–

fitness, one replicate
Conditions	first compound 0.002 µg/mL	first compound 0.004 µg/mL	first compound 0.008 µg/mL	first compound 0.0156 µg/mL	first compound 0.0312 µg/mL	first compound 0.0625 µg/mL
S. aureus Newman, partner 8 µg/mL	–	–	–	0.993	0.823	0.658
S. pneumoniae D39V, partner 1 µg/mL	0.81	0.724	0.496	–	–	–
S. pneumoniae D39V, partner 2 µg/mL	0.727	0.686	0.459	–	–	–
S. pneumoniae D39V, partner 4 µg/mL	0.739	0.7	0.513	–	–	–

From the supplement of paper PMC10627819
